This is an account of results in US20230151003A1, “COMPOUNDS AND METHODS OF USE” (Exelixis, Inc., priority 2020, published 2023).

What all share (assay type): biochemical
The target in one experiment is Met (Homo sapiens, UniProt P08581). Nature of the experiment: Human MET kinase assay (HTRF KinEase). The settings on record: Table 2 Biological Activities, ATP at Km (3.0 μM), read-out: c-Met IC50. Further details: Human MET (residues 956-1390; CarnaBio, 0.1 ng/ well); purchased CarnaBio. How it is done:
(§1) Kinase activity and compound inhibition were investigated using the HTRF® KinEase assay (Cisbio Cat #62TKOPEB) per manufacturer's instructions. In short, compounds were delivered in 300 nL volumes at 10 different concentrations in DMSO (3% final) to empty 384-well assay plates (Corning cat #3824). A mixture of enzyme, 1 μM biotynlated peptide substrate, and buffer in 10 μL volume was added. The assay was started upon the addition of ATP (at Km). The 10 μL reaction was incubated at room temperature. The reaction was stopped upon the addition of detection buffer containing streptavidin-XL665 (5 μL) and TK antibody-Eu3+ (5 μL). After a 60 min incubation at room temperature, the fluorescence at 665 nm and 620 nm was read on an Envision microplate reader (Perkin Elmer). Kinase activity normalized to DMSO (100% activity) and reference compound at 1 μM and (0% activity) was calculated using the fluorescence ratio […]. IC50 values were calculated by nonlinear regression analysis using a 4-parameter logistic curve fit in ActivityBase XE (IDBS).
Human MET (residues 956-1390; CarnaBio, 0.1 ng/ well) was incubated with enzymatic buffer (Cisbio) supplemented with 5 mM MgCl2, 1 mM DTT and 1 mM MnCl2. The mixture was added to the pre-plated compounds. The reaction was initiated upon addition of ATP at Km (3.0 μM). The reaction was incubated at room temperature for 40 min and stopped upon the addition of SA-XL665 and TK-antibody both diluted in EDTA-containing kinase detection buffer (Cisbio). The kinase activity was calculated as stated above and the IC50 values were reported.
On the technique in general: TR-FRET usually uses a lanthanide donor and a delayed reading to cut background.

The next experiment has as its target T1, Human AXL (Homo sapiens, UniProt P30530).
T1 construct: Human AXL (residues 464-885; CarnaBio, 1 ng/ well); purchased CarnaBio
T1 sequence (P30530 464-885 isoform P30530-2): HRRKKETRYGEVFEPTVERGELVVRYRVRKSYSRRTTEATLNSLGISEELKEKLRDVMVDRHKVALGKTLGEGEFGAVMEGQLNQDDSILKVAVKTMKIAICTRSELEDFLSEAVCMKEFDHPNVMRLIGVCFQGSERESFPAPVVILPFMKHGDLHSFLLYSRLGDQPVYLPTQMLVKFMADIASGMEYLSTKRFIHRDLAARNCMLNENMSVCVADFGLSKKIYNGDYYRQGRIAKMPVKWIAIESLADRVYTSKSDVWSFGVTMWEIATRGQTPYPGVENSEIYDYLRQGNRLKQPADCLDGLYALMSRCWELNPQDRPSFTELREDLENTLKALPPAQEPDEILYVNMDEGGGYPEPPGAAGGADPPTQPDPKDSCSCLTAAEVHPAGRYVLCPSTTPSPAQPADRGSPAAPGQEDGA
As to the kind of experiment: Human AXL kinase assay (HTRF KinEase). The settings on record: Table 2 Biological Activities, ATP at Km (1.0 μM). How it is done:
as §1
Human AXL (residues 464-885; CarnaBio, 1 ng/ well) was incubated with enzymatic buffer (Cisbio) supplemented with 5 mM MgCl2, 1 mM DTT, and Supplemental Enzymatic Buffer (SEB; Cisbio). The mixture was added to the pre-plated compounds. The reaction was initiated upon addition of ATP at Km (1.0 μM). The reaction was incubated at room temperature for 50 min and stopped upon the addition of SA-XL665 and TK-antibody both diluted in EDTA-containing kinase detection buffer (Cisbio). The kinase activity was calculated as stated above and the IC50 values were reported.

A further experiment addresses T2, Human MER (Homo sapiens, UniProt Q12866).
T2 construct: Human MER (residues 528-999; CarnaBio, 1 ng/ well); purchased CarnaBio
T2 sequence (Q12866 528-999): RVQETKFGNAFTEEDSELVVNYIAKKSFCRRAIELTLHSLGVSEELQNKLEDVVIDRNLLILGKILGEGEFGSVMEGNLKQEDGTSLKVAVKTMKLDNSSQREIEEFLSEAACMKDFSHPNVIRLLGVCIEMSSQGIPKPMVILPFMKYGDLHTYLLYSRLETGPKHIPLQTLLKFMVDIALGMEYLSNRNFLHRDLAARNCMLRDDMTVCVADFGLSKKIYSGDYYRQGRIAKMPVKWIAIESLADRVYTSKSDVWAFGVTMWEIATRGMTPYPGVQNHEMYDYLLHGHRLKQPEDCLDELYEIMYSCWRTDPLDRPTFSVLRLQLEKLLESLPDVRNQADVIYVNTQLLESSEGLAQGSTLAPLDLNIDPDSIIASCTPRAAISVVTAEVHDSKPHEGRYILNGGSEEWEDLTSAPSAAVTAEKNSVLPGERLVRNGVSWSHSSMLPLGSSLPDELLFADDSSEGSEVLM
Nature of the experiment: Human MER kinase assay (HTRF KinEase). The following applies: Table 2 Biological Activities, ATP at Km (40 μM). How it is done:
as §1
Human MER (residues 528-999; CarnaBio, 1 ng/ well) was incubated with enzymatic buffer (Cisbio) supplemented with 5 mM MgCl2 and 1 mM DTT. The mixture was added to the pre-plated compounds. The reaction was initiated upon addition of ATP at Km (40 μM). The reaction was incubated at room temperature for 60 min and stopped upon the addition of SA-XL665 and TK-antibody both diluted in EDTA-containing kinase detection buffer (Cisbio). The kinase activity was calculated as stated above and the IC50 values were reported.

For another experiment, the target named is KDR (Homo sapiens, UniProt P35968). Nature of the experiment: Human KDR kinase assay (HTRF KinEase). Details: Human KDR (residues 790-1356; CarnaBio, 0.1 ng/ well); purchased CarnaBio. The settings on record: Table 2 Biological Activities, ATP at Km (4.0 μM). How it is done: as §1
Human KDR (residues 790-1356; CarnaBio, 0.1 ng/ well) was incubated with enzymatic buffer (Cisbio) supplemented with 5 mM MgCl2, 1 mM MnCl2, and 1 mM DTT. The mixture was added to the pre-plated compounds. The reaction was initiated upon addition of ATP at Km (4.0 μM). The reaction was incubated at room temperature for 40 min and stopped upon the addition of SA-XL665 and TK-antibody both diluted in EDTA-containing kinase detection buffer (Cisbio). The kinase activity was calculated as stated above and the IC50 values were reported.

Sequence of Met (P08581 956-1390): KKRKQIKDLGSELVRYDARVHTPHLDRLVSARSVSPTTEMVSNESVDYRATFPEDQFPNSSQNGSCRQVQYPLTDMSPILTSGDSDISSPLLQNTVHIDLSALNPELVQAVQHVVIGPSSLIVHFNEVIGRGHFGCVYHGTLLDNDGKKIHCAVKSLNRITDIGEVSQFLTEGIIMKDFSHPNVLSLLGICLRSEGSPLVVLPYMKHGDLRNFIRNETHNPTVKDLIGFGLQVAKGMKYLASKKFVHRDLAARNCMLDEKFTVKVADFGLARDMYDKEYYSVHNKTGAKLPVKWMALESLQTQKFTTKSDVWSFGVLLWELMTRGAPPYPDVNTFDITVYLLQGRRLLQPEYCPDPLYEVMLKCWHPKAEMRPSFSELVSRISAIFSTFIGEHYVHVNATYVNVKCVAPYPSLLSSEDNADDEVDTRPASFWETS
Sequence of KDR (P35968 790-1356): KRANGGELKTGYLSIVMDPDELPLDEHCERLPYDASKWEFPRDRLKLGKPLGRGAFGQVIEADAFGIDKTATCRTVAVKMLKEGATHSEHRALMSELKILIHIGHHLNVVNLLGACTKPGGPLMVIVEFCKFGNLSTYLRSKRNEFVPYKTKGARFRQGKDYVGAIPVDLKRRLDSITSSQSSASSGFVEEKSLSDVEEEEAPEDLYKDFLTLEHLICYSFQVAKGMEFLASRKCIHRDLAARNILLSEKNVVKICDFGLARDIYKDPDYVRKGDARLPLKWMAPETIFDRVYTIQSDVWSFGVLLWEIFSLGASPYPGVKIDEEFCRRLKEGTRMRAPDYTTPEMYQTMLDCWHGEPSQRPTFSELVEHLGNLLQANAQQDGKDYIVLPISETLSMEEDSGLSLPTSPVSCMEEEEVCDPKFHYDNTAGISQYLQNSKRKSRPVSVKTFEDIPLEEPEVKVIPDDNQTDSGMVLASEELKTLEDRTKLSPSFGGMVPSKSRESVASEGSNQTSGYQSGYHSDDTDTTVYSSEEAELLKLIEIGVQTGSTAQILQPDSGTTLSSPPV

The term IC50 denotes the concentration that inhibits the measured activity by half. For `COc1cc2nccc(Oc3ccc(NC(=O)c4ccc(C)n(-c5ncc(F)cc5C)c4=O)cc3F)c2nc1OC` [Compound 51, N-[4-[(6,7-Dimethoxy-1,5-naphthyridin-4-yl)oxy]-3-fluorophenyl]-1-(5-fluoro-3-methylpyridin-2-yl)-6-methyl-2-oxopyridine-3-carboxamide], the 50% inhibitory concentration (IC50) at Met is at most 100 nM; against Human AXL, at most 100 nM; on Human MER, at most 100 nM; on KDR, 100 to 300 nM.
Take `COc1cnc2c(Oc3ccc(NC(=O)c4ccc(C)n(-c5ncc(F)cc5C)c4=O)cc3F)ccnc2c1` [Compound 52, N-[3-Fluoro-4-[(7-methoxy-1,5-naphthyridin-4-yl)oxy]phenyl]-1-(5-fluoro-3-methylpyridin-2-yl)-6-methyl-2-oxopyridine-3-carboxamide]: the half-inhibitory concentration (IC50) was at most 100 nM at Met, at most 100 nM on Human AXL, at most 100 nM on Human MER and 300 to 1000 nM on KDR.
Regarding `COc1ccc2nccc(Oc3ccc(NC(=O)c4ccc(C)n(-c5ccc(F)cn5)c4=O)cc3F)c2n1` [Compound 47, N-[3-Fluoro-4-[(6-methoxy-1,5-naphthyridin-4-yl)oxy]phenyl]-1-(5-fluoropyridin-2-yl)-6-methyl-2-oxopyridine-3-carboxamide], the half-maximal inhibitory concentration (IC50) is 100 to 300 nM at Met, at most 100 nM against Human AXL, at most 100 nM on Human MER and 300 to 1000 nM against KDR.
